Laboratory results taken from patent US12630829B2, “Gene encoding cytochrome P450 and use thereof” (KUMIAI CHEMICAL INDUSTRY CO., LTD., priority 2020, dated 2026).

Legend:
CYP81A6 = conditions: reported so far; cited from earlier work
[1] = tested on: AK369081 (barley-derived P450) co-expressed with TaCPR; assay: In vitro drug metabolism test of AK369081 protein against fenquinotrione; assay type: in vitro ADME; conditions: test method and conditions of Example 1; AK369081 reaction plot
Experimental: It was verified by in vitro metabolism test whether or not a novel wheat-derived P450 of AK454412 is involved in herbicide metabolism. As a compound having high safety against wheat, fenquinotrione was used. […] A solution after completing the enzymatic reaction was centrifuged at 15,000 rpm for 1 minute, and the obtained supernatant was filtered through a 0.45 μm filter and then tested by LC/MS. LC/MS conditions were as follows:
Specifically, in the same manner as in KJ541960, recombinant proteins of these genes were prepared to evaluate, by in vitro test, whether or not these have fenquinotrione metabolic activity. First, an expression vector was designed by inserting, between NdeI and EcoRI sites of pET-22b(+), a nucleotide sequence, which encoded a sequence obtained by removing the transmembrane region (AK375492: 35 N-terminal amino acid residues, AK369081: 37 N-terminal amino acid residues) of each of the genes of Accession Nos. AK375492 and AK369081, and adding the 6β sequence (MAKKTSS) to the N-terminal, and synthesis of artificial genes was requested of GenScript. Each of the synthesized expression vectors (6β AK375492 in pET-22b, 6β AK369081 in pET-22b) was co-introduced, together with pACYC-del31_TaCPR, into E. coli BL21 star (DE3) strain for protein expression (FIG. 15). […]

[2] = tested on: Arabidopsis thaliana having AK454412 forced expression; assay: Fenquinotrione sensitivity test on MS solid medium, AK454412 forced expression; assay type: in vivo; conditions: 10,000 nM in MS solid medium, 22° C., about 10 days, evaluated subjectively
Experimental: First, a binary vector, pMLH7133-AK454412_for At, for transforming Arabidopsis thaliana was produced. With the pET-22b-AK454412 produced in Example 1 used as a template, PCR was performed using a primer set of pMLH-tplb Xba IF (Fd) and pMLH-tplb Sac IF (Rv) to obtain a DNA fragment in which XbaI/SacI recognition sequence and 15 bases of In-Fusion recognition sequence were added to a terminal of full length CDS sequence of the AK454412 gene. The obtained DNA fragment and pMLH7133 vector, having been digested with the restriction enzymes XbaI/SacI, were linked to each other with In-Fusion HD Cloning Kit (Clontech) to produce a binary vector, pMLH7133-AK454412_for At, for transforming Arabidopsis thaliana (FIG. 8). The obtained construct was introduced into Agrobacterium EHA105 strain by an electroporation method. The transformation of Arabidopsis thaliana was performed by a floral dip method using this recombinant Agrobacterium.
With a sensitivity difference from wild type Arabidopsis thaliana used as an index, it was verified whether or not the created transformant had resistance to fenquinotrione. […] The sensitivity to this drug was evaluated subjectively in accordance with the degree of chlorosis of acting symptom. […]

[3] = tested on: wild type Arabidopsis thaliana; assay: Fenquinotrione sensitivity test on MS solid medium, wild type; assay type: in vivo; conditions: 10 nM in MS solid medium, 22° C., about 10 days, evaluated subjectively
Experimental: With a sensitivity difference from wild type Arabidopsis thaliana used as an index, it was verified whether or not the created transformant had resistance to fenquinotrione. In MS solid media in each of which fenquinotrione was added to a final concentration of 10,000, 1,000, 100, 10, or 1 nM, or 0.1% of DMSO was added as an untreated plot, sterilized seeds of Arabidopsis thaliana having AK454412 forced expression and wild type Arabidopsis thaliana were each seeded, and grown at 22° C. for about 10 days. The sensitivity to this drug was evaluated subjectively in accordance with the degree of chlorosis of acting symptom. The results are illustrated in FIG. 9. FIG. 9(A) illustrates results obtained in using the wild type Arabidopsis thaliana, and FIG. 9(B) illustrates results obtained in using the Arabidopsis thaliana having AK454412 forced expression.

COc1ccc(-n2c(=O)c(C(=O)C3C(=O)CCCC3=O)nc3c(Cl)cccc32)cc1 [fenquinotrione]
metabolic reactivity of CYP81A6 against the compound (CYP81A6): exhibits metabolic reactivity | metabolism of fenquinotrione (generation of demethylated product as index) [1]: a peak of the demethylated product (RT=in the vicinity of 15.1) appeared | chlorosis symptom [2]: not observed | wild type Arabidopsis thaliana having chlorosis [3]: ≥ 90%
